Patent US9290452B2, “Multicomponent crystalline system comprising deferasirox and isonicotinamide and a process for the preparation thereof” (BASF SE, priority 2012, dated 2016)

What was measured:
[1] = Dynamic water vapor adsorption measurements (DVS); assay type: physicochemical; details: water vapor sorption
Description: It is known that the anhydrous form A of Deferasirox converts to a hydrate form upon exposure to high relative humidity, therefore anhydrous Deferasirox is hygroscopic. The multicomponent crystalline system described here is characterized in that it has good hygroscopic properties, i.e. absorb little water at high relative humidity. This is evident from table 1 below, which compares the water contents of the multicomponent crystalline system and Deferasirox free drug substance at 50% and 95% relative humidity. The data originate from dynamic water vapor adsorption measurements. The water vapor sorption measurement is a suitable method for investigating the hygroscopic properties of solid substances. Water vapor sorption measurements can be carried out in different ways. In general, in this connection, a small sample of ca. 10-30 mg is introduced into a microbalance in a suitable sample carrier. The sample is then exposed to different relative humidities in accordance with a defined program, the change in the sample mass being simultaneously recorded over the time. […]
Dynamic water vapor adsorption measurements were carried out using an SPS11 100 n instrument, manufactured by “Projekt Messtechnik” in Ulm, Germany. […] The sample was then subjected to preselected relative humidities in accordance with a defined program, the change in mass being determined over the time. […]

[2] = Aqueous solubility determination (suspension equilibration for three days, HPLC); assay type: physicochemical; details: pure water, 25±2° C. (ambient temperature), about three days of suspension equilibration, filtered solution
Protocol: The aqueous solubility of Deferasirox free drug substance and the multicomponent crystalline system of the present invention (Deferasirox-Isonicotinamide co-crystal) was determined in water at ambient temperature after about three days of suspension equilibration using HPLC for the determination of the concentration in the filtered solution.
Solubility determinations were carried out in pure water at 25±2° C. Suspensions with about 50 mg the solid form, either the co-crystal of the present invention or deferasirox free drug substance in 7 mL water were prepared an equilibrated for three days before the solution phase was filtered off and tested by HPLC.
HPLC was carried out on an Agilent 1100 HPLC chromatograph equipped with a UV-vis detection unit. The column type used was a Waters XTerra MS C18, 100×4.6 mm, 5 μm (FK-CC01F). […]
882 mg of Deferasirox and 290 mg of isonicotinamide are dissolved in a mixture of 15 ml acetone and 3 ml THF by shortly heating to reflux temperature. […] Then suspension is filtered and the concentration in the solution determined by HPLC. […]

SMILES: O=C(O)c1ccc(-n2nc(-c3ccccc3O)nc2-c2ccccc2O)cc1 [Deferasirox free drug substance, 4-[3,5-bis(2-hydroxyphenyl)-1H-1,2,4-triazol-1-yl]benzoic acid]
- H2O content at 50% r.h. ([1]; 50% relative humidity): 0.5%
- H2O content at 95% r.h. ([1]; 95% relative humidity): 3.6%
- solubility thermodynamic at 3 days [2]: < 1 µg/mL
